Blank lines part the entries; values can stand above or below the compound they belong to.
How the values were obtained:
A549 = test: Anticancer activity against human A549 cells assessed as cell growth inhibition incubated for 24 hrs by MTT assay; format: functional, cell-based; conditions: A549, 24 h
HeLa = test: Anticancer activity against human HeLa cells assessed as cell growth inhibition incubated for 24 hrs by MTT assay; format: functional, cell-based
HepG2 = test: Anticancer activity against human HepG2 cells assessed as cell growth inhibition incubated for 24 hrs by MTT assay; format: functional, cell-based; conditions: HepG2, 24 h
U-251 = test: Anticancer activity against human U-251 cells assessed as cell growth inhibition incubated for 24 hrs by MTT assay; format: functional, cell-based; conditions: U-251, 24 h
[1] = target: T1, Tyrosine-protein kinase JAK3 (Homo sapiens, UniProt P52333); test: Inhibition of JAK3 (unknown origin) incubated for 20 mins
T1 sequence (P52333 whole entry): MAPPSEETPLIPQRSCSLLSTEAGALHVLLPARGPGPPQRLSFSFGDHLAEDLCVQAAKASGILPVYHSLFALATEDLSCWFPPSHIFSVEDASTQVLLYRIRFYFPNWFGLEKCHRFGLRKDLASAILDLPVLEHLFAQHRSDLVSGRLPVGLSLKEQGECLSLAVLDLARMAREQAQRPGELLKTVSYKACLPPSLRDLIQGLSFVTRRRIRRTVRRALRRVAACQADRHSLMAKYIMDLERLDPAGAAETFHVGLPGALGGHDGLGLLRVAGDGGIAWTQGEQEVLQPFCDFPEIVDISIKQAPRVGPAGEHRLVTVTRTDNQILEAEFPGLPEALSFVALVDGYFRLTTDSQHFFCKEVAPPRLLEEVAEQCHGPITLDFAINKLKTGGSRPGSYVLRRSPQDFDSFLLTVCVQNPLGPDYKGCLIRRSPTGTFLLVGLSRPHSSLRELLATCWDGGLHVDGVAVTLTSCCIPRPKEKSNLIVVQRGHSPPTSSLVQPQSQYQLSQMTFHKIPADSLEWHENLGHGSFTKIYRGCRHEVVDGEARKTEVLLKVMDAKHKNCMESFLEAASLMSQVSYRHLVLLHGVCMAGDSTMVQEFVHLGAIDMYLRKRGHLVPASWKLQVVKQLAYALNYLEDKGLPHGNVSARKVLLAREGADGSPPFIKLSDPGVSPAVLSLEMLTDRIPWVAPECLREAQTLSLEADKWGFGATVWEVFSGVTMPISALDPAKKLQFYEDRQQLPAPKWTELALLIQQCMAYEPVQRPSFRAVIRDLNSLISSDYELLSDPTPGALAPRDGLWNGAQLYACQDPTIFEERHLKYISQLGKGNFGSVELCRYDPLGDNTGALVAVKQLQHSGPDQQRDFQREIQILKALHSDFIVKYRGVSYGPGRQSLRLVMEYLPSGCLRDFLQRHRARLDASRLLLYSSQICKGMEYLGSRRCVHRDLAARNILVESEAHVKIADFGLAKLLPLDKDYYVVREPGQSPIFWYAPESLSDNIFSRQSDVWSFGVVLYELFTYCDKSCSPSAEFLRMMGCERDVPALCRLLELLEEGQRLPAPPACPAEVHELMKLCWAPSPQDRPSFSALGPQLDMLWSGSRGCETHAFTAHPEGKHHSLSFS

[2] = target: Prostaglandin G/H synthase 1 (Homo sapiens, UniProt P23219); test: Inhibition of COX1 (unknown origin)
[3] = target: T2, Prostaglandin G/H synthase 2 (Homo sapiens, UniProt P35354); test: Inhibition of COX2 (unknown origin)
T2 sequence (P35354 whole entry): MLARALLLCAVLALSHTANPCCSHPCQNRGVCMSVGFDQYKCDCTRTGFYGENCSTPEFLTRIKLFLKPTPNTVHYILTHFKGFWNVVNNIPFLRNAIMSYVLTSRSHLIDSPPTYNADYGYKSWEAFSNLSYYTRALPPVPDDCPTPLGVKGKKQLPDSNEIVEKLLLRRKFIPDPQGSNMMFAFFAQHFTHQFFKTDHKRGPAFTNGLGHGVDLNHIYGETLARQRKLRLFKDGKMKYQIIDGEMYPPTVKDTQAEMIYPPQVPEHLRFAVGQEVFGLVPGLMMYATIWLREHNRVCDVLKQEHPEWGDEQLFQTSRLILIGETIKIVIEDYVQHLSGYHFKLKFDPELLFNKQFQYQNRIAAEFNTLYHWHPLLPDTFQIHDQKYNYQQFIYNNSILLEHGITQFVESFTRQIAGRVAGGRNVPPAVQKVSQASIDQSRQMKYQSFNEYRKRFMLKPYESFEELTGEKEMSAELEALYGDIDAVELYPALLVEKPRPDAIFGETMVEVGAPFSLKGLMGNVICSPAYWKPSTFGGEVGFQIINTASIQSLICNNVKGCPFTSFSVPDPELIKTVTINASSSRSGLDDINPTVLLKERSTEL

Staphylococcus aureus = test: Antibacterial activity against Staphylococcus aureus assessed as bacterial growth inhibition incubated for 24 hrs by MTT based ELISA analysis; format: functional
Bacillus subtilis = test: Antibacterial activity against Bacillus subtilis assessed as bacterial growth inhibition incubated for 24 hrs by MTT based ELISA analysis; format: functional
Escherichia coli = test: Antibacterial activity against Escherichia coli FabH assessed as bacterial growth inhibition incubated for 24 hrs by MTT based ELISA analysis; format: functional, organism-based

Sequence of Prostaglandin G/H synthase 1 (P23219 whole entry): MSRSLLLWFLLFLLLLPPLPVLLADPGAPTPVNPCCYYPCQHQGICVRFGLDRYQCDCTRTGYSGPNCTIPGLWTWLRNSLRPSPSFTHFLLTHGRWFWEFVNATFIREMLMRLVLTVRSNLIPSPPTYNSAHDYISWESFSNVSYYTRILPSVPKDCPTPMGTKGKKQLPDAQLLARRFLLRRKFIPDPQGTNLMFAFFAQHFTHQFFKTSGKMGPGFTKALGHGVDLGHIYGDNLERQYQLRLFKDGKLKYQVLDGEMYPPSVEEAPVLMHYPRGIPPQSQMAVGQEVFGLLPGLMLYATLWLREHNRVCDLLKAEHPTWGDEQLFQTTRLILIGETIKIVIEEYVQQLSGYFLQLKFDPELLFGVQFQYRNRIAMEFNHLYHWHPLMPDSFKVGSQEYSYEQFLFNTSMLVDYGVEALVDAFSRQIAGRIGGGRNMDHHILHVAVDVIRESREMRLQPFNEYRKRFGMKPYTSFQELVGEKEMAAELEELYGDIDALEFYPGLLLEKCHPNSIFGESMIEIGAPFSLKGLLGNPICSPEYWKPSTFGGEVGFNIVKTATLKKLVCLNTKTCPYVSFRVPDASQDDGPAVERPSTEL

- IC50 (A549): 0.065 µM
- IC50 (HeLa): 0.021 µM
- IC50 (HepG2): 0.016 µM
- IC50 (U-251): 0.044 µM
- IC50 [1]: 0.009 µM
Structure (SMILES): O=C(OCCn1c([N+](=O)[O-])cnc1/C=C/c1ccc(Cl)cc1Cl)c1ccc2c(c1)OCCO2

- IC50 [2]: 1.9 µM
- IC50 [3]: 9.9 µM
Structure (SMILES): COc1cc(C2Oc3cc(C=Cc4cc(O)cc(O)c4)ccc3OC2CO)cc(OC)c1O (stereo not drawn)

- MIC (Staphylococcus aureus): 1.5 mg/L
- MIC (Bacillus subtilis): 6 mg/L
Structure (SMILES): O=C(N/N=C/C=C/c1ccccc1[N+](=O)[O-])c1cccc2c1OCCO2
- IC50 (Escherichia coli): 3.5 µM

- MIC (Staphylococcus aureus): 1.5 µM
- MIC (Bacillus subtilis): 1.5 µM
Structure (SMILES): O=C(CN1CCN(c2ccccn2)CC1)N1C(=O)S/C(=C\c2ccc3c(c2)OCCO3)C1=O
- IC50 (Escherichia coli): 0.06 µM

— ChEMBL document CHEMBL5244242, “1,4-Benzodioxane, an evergreen, versatile scaffold in medicinal chemistry: A review of its recent applications in drug design” (Eur J Med Chem, 2020)
